Test [1] concerns the target T1, α-amylase (Aspergillus oryzae, UniProt P0C1B3).
T1 construct: purchased Sigma-Aldrich
As to the kind of experiment: biochemical. The test is classed as biochemical. The conditions noted are these: for IC50: α-amylase from Aspergillus oryzae, starch substrate, 37 °C, pH 6.9, mean ± standard error, read-out: α-Amylase Inhibitory Assay (IC50) (converted). The method, then:
The inhibitory effect of MA and MB on α-amylase was assessed by starch-iodine method with a modified model as follows: in each well of a microplate (U-shape, Greiner Bio-one, NC, USA), 20 µL of each either MA or MB were pre-incubated with 20 µL of 1 U/mL α-amylase solution (from Aspergillus oryzae, Sigma-Aldrich, St. Louis, MO, USA) at 37 °C for 10 min. The reaction was initiated by pipetting 30 µL of starch (0.5% in deionized water) (soluble ACS reagent, Sigma-Aldrich, St. Louis, MO, USA). After 6 min incubation at 37 °C, an aliquot of 20 µL of hydrochloric acid (1 M) were added to stop reaction, followed by 120 µL of 0.25 mM aqueous iodine solution. The absorbance at 565 nm was read by a microplate reader (Multiskan^TM Microplate Spectrophotometer, Thermo Fisher Scientific, Osaka, Japan). The inhibitory activity of MA and MB on α-amylase was performed as the inhibition percentage that was calculated by the following formula:% inhibition = (A − C)/(B − C) × 100(2) where A is the absorbance of reaction with presence of MA or MB, B is the absorbance of reaction without enzyme, C is the absorbance of reaction with absence of the momilactones. […] Dilutions of test samples and dissolutions of enzyme used 20 mM sodium phosphate buffer (pH 6.9 comprising of 6 mM sodium chloride). α-Amylase solution and soluble starch solution were prepared and used on the day of experiment.

The target of test [2] is T2, α-glucosidase (Saccharomyces cerevisiae, UniProt P53341).
T2 construct: purchased Sigma-Aldrich
As to the kind of experiment: α-Glucosidase inhibition assay (pNPG substrate). The test is classed as biochemical. The conditions noted are these: for suppressive property on α-glucosidase relative to acarbose (fold greater than acarbose): ratio of IC50 values versus acarbose; for IC50: α-glucosidase from Saccharomyces cerevisiae, pNPG substrate, 25 °C, pH 7, mean ± standard error, read-out: α-Glucosidase Inhibitory Assay (IC50) (converted). The method, then:
The anti-α-glucosidase activity of MA and MB was evaluated using a method as described previously with some alterations. In brief, an amount of 20 µL methanolic stock solution of MA and MB were pre-mixed with an equal volume of 0.1 M potassium phosphate buffer (pH 7) and 40 µL of α-glucosidase (from Saccharomyces cerevisiae, Sigma-Aldrich, St. Louis, MO, USA) enzyme solution (0.5 U/mL in 0.1 M potassium phosphate buffer, pH 7). After 6 min incubation at 25 °C, a 20 µL aliquot of 5 mM p-nitrophenyl-α-D-glucopyranoside (pNPG) substrate (in 0.1 M potassium phosphate buffer, pH 7) was added to each reaction and the mixture was incubated for another 8 min. Eventually, the reaction was terminated by adding 100 µL of 0.2 M Na2CO3, and absorbance was recorded at 405 nm. […] IC50 value was obtained by the same way as above.

Setting [3] is: ratio of IC50 values, MB versus MA.

T2 sequence (P53341 whole entry): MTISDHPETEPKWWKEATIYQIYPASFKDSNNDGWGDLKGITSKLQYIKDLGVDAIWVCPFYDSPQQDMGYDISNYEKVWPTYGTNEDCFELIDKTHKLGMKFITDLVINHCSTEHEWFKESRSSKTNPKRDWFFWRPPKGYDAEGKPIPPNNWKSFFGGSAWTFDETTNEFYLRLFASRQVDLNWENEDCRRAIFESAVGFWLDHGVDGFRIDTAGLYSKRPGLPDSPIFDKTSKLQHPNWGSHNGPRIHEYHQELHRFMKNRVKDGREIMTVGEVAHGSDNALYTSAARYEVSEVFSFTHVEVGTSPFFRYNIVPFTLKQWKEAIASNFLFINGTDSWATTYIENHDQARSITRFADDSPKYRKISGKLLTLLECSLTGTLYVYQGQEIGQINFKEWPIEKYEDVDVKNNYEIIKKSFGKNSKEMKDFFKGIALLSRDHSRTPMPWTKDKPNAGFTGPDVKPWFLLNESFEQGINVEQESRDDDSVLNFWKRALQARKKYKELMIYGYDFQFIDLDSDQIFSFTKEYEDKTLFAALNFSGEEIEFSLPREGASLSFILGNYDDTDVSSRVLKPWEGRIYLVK

Turning to `C=C[C@]1(C)CC[C@H]2C(=C[C@H]3OC(=O)[C@@]4(C)C(=O)CC[C@@]2(C)[C@@H]34)C1` [MA, momilactone A], the IC50 (as a rule, the concentration needed to halve the response being measured) is 848 µM in test [1] and 3150 µM in test [2]. Moreover, in test [2], the “suppressive property on α-glucosidase relative to acarbose (fold greater than acarbose)” value is 2.5 fold.
Take `C=CC1(C)CCC2C(=CC3OC(=O)C4(C)C3C23CCC4(O)OC3)C1` (centres unmarked) [MB, momilactone B]: in test [1] (setting [3]), the “inhibitory activity on α-amylase of MB relative to MA (fold stronger)” value worked out at 1.8 fold. The results for the IC50 in test [1] and in test [2] were 444 µM and 1850 µM, respectively. Also, the “suppressive property on α-glucosidase relative to acarbose (fold greater than acarbose)” value in test [2] came out at 4.2 fold. Further, the “inhibitory activity on α-glucosidase of MB relative to MA (fold stronger)” value in test [2] (setting [3]) amounted to 1.6 fold.

These data come from article PMC6385104, “Momilactones A and B Are α-Amylase and α-Glucosidase Inhibitors” (Molecules, 2019).
